Data as given in patent US8158615B2, “Anti-viral composition for the topical treatment of Herpes Labialis (cold sores) and method for use thereof” (priority 2006, dated 2012).

Experiments:
HSV-1 = experiment: Anti-viral activity of CTC-96 extracted from Dermal Ointment Formulation; assay type: cell-based; details: extract diluted to 2.5 μg/ml
Text: FIG. 1 is a graphical representation showing the anti-viral activity of CTC-96 extracted from the dermal formulation.
CTC-96 was mixed to homogeneity with a Dermal Ointment Formulation (petrolatum 10% by weight, camphor 0.92% by weight, menthol 0.5% by weight, methyl salicylate 0.26% by weight, eucalyptus oil 0.30% by weight).

[1] = Percutaneous absorption of CTC-96 from Dermal ointment Formulation, finite dose technique, Franz Diffusion Cells; assay type: in vitro ADME, human; details: 48 hours; for Mass in Dermis / Mass in Receptor Solution / Percent of Applied Dose in Dermis / Percent of Applied Dose in Epidermis / Percent of Applied Dose in Receptor Solution: single application; for Percent of Applied Dose in Epidermis / Percent of Applied Dose in Receptor Solution / Mass in Epidermis / Mass in Surface wash / Mass, Total Recovery / Percent of Applied Dose in Surfacewash / Percent of Applied Dose, Total Recovery / Mass in Stratum Corneum / Percent of Applied Dose in Stratum Corneum: Mean ± SE; for Percent of Applied Dose in Receptor Solution: n = 3 donors; for Mass in Stratum Corneum / Percent of Applied Dose in Stratum Corneum: tape strip samples
Procedure: The percutaneous absorption of Doxovir-L® (CTC-96) was evaluated by mixing CTC-96 at two concentrations (10 mg/g and 1 mg/g) to homogeneity with a Dermal ointment Formulation (petrolatum 10% by weight, camphor 0.92% by weight, menthol 0.5% by weight, methyl salicylate 0.26% by weight, eucalyptus oil 0.30% by weight) and was determined in vitro, using the human cadaver skin model using the finite dose technique and Franz Diffusion Cells (12;13). Placebo consisted of the drug formulation without drug. The amount of Dermal ointment that is applied at each treatment was determined is shown in the following table (TABLE 1): The percutaneous absorption of Doxovir-L® (CTC-96) was determined is shown in the following table (TABLE 2 & TABLE 3): […]

Herpes Labialis = details: 1% concentration; application after the prodromal phase; cited from earlier work

## CC(/C=C(/C)[O-])=NCCN=C(C)/C=C(/C)[O-].Cc1ncc[nH]1.Cc1ncc[nH]1.[Br-].[Co+3] [CTC-96]
HSV-1; incubated at 4° C., 3 mo
  % Inhibition Mean ± SD: 91.5 ± 0.5%
HSV-1; incubated at 4° C., 6 mo
  % Inhibition Mean ± SD: 91.5 ± 3.4%
HSV-1; incubated at 4° C., time 0
  % Inhibition Mean ± SD: 91.8 ± 1.7%
HSV-1; incubated at 40° C., 3 mo
  % Inhibition Mean ± SD: 90.1 ± 0.8%
HSV-1; incubated at 40° C., 6 mo
  % Inhibition Mean ± SD: 92.1 ± 1.0%
HSV-1; incubated at 40° C., time 0
  % Inhibition Mean ± SD: 88.8 ± 2.7%
[1]; drug concentration 1 mg/g
  Mass in Dermis: 0 μg/cm2
  Mass in Receptor Solution: 0 μg/cm2
  Percent of Applied Dose in Dermis: 0% of Applied Dose
  Percent of Applied Dose in Epidermis: 2.20 ± 1.09% of Applied Dose
  Percent of Applied Dose in Receptor Solution: 0% of Applied Dose
  Mass in Epidermis: 0.11 ± 0.05 μg/cm2
  Mass in Surface wash: 3.17 ± 0.01 μg/cm2
  Mass, Total Recovery: 4.83 ± 0.07 μg/cm2
  Percent of Applied Dose in Surfacewash: 7.41 ± 0.30% of Applied Dose
  Percent of Applied Dose, Total Recovery: 9.67 ± 1.34% of Applied Dose
  Mass in Stratum Corneum: 0.03 ± 0.00 μg/cm2
  Percent of Applied Dose in Stratum Corneum: 0.06 ± 0.06% of Applied Dose
[1]; drug concentration 10 mg/g
  Mass in Dermis: 0 μg/cm2
  Mass in Receptor Solution: 0 μg/cm2
  Percent of Applied Dose in Dermis: 0% of Applied Dose
  Percent of Applied Dose in Epidermis: 3.63 ± 0.58% of Applied Dose
  Percent of Applied Dose in Receptor Solution: 0% of Applied Dose
  Mass in Epidermis: 1.81 ± 0.29 μg/cm2
  Mass in Surface wash: 5.41 ± 1.90 μg/cm2
  Mass, Total Recovery: 7.86 ± 1.56 μg/cm2
  Percent of Applied Dose in Surfacewash: 10.81 ± 3.79% of Applied Dose
  Percent of Applied Dose, Total Recovery: 15.72 ± 3.12% of Applied Dose
  Mass in Stratum Corneum: 0.64 ± 0.33 μg/cm2
  Percent of Applied Dose in Stratum Corneum: 1.29 ± 0.67% of Applied Dose

## Nc1nc2c(ncn2CCC(CO)CO)c(=O)[nH]1 [penciclovir]
Herpes Labialis
  reduction in symptoms and time to healing: 20-30%
